Assay results: patent US20230355815A1, “ACTIVE DELIVERY OF RADIOTRACERS ACROSS THE BLOOD BRAIN BARRIER” (The Board of Trustees of the Leland Stanford Junior …, priority 2021, published 2023)

Key:
[1] = test system: TREM1; conditions: animal models of sepsis; cited from earlier work
[2] = test system: TREM1 signaling; assay: LP17 treatment study in EAE mice; format: in vivo, mouse; conditions: vs saline
Description: Spinal cords were further analyzed via high-resolution autoradiography. Flow cytometry was performed on CNS tissues using TREM1, CD45, CD11b, CD11c, CD3, and Ly-6G to delineate immune cell populations. Quantitative PCR was performed to assess changes in mRNA expression. LP17, a decoy receptor peptide known to attenuate TREM1 signaling, was administered daily to pre EAE mice (10, 15 mg/kg, or saline i.p) for 10 days.
Blocking TREMi signaling genetically and pharmacologically attenuates EAE severity. To explore the biological relevance of TREMl in EAE development and progression, we assessed disease trajectory in KO EAE compared to WT EAE animals. While 83% of WT mice developed EAE, only 40% of Trem/KO mice developed symptoms during the same timeframe. […] Next, to determine if blocking TREM I signaling during disease development could have therapeutic effects, we treated WT EAE animals with LP 17 (10 or 15 mg/kg)—a 17 mer peptide decoy receptor, previously shown to attenuate TREMi signaling (25, 38)—and compared disease progression to vehicle (saline) treated mice.
LPI 7 peptide (sequence: […] […]) was synthesized by the Protein and Nucleic Acid Core Facility at Stanford University as previously described (J 9). WT EAE mice were induced with EAE and monitored daily as previously outlined. […] LP 17 or saline was administered daily (i.p) for 10 days and disease level was recorded.

[3] = molecular target: T1, TSPO (Mus musculus, UniProt P50637); assay: TSPO-PET/CT imaging of EAE mice; format: in vivo
T1 construct: endogenous in cells; host or cells: tissues of living C57BL/6 mice (EAE and naive)
T1 sequence (P50637 whole entry): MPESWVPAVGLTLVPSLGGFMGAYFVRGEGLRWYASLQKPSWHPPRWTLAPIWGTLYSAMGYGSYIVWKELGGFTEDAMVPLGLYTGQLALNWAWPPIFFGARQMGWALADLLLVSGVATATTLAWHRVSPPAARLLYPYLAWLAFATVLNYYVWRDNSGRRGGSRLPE
Description: Mice were categorized as pre-symptomatic (pre; score 0, >1 g weight loss in 48 h), low (score 0.5-2), or high EAE (score 2.5-4.5). Anti-TREM1 monoclonal antibody (mAb) was DOTA-conjugated and radiolabeled with ^64Cu. PET/CT imaging was performed 20 hours post-injection of [^64Cu]TREM1-mAb (95-120 μCi, >99% RCP) or 50-60 min after TSPO-targeted radiotracer [^18F]GE-180 (231-269 μCi, >99% RCP). Following PET, mice were perfused to remove unbound intravascular tracer and radioactivity in central nervous system (CNS) tissues was measured using a gamma counter.
TREMl-PET is a more sensitive tool for detecting neuroinflammation in EAE compared to TSPO-PET Next, we examined the sensitivity of TREMl-PET compared to the gold standard approach for assessing neuroinflammation in vivo for both preclinical and clinical research—TSPO-PET. Naive and EAE mice were injected with [^18F]GE-180. a highly sensitive and selective tracer for TSPO in rodents (26), and PET images were acquired 50-60 min following tracer administration. […] Specifically, peritoneum adhesions encompassing the spleen. mesentery, and stomach, as well as abdominal granulomatous inflammation, have been reported in mice injected with CFA (27). […]
[^18F]GE-180 was synthesized as previously described (46). Chemical and radiochemical purity were determined by reverse-phase analytical HPLC (Phenomenex Luna column, 150×4.6 mm. particle size 3 μm. pore size 100 A) using a 11 min 50-95% gradient (0.1 mg/mL ascorbic acid in H2O:MeCN. monitored by gamma detection and UV at 254 and 280 nm). […]
PET images were analyzed using Vivoquant software (version 4.0. inviCRO) and visualized using Inveon Research Workspace (IRW, version 4.0: Siemens). Brain uptake was quantified as previously described (47). lo brief, a 3-dimensional mouse brain atlas was utilized to obtain tracer uptake values in a priori regions of interest (whole brain, pons. medulla. and cerebellum). Cervical/thoracic and lumbar spinal cord quantification was obtained via segmentation and exclusion of the vertebral column. […]

For `CC(C)[C@]12O[C@H]1[C@@H]1O[C@]13[C@]1(O[C@H]1C[C@H]1C4=C(CC[C@@]13C)C(=O)OC4)[C@@H]2O` [triptolide], the “pro-inflammatory mediators and survival” value [1] is given as “reduce pro-inflammatory mediators and increase survival”.

For “LP17: 17 mer peptide decoy receptor attenuating TREM1 signaling; sequence LQVTDSGL YRCVIYHPP (LQVTDSGLYRCVIYHPP)”, the “pro-inflammatory mediators and survival” value [1] is listed as “reduce pro-inflammatory mediators and increase survival”, the EAE disease severity ([2]; 10 mg/kg daily i.p. for 10 days from pre EAE stage) is listed as “not” and the EAE disease severity ([2]; 15 mg/kg daily i.p. for 10 days from pre EAE stage) is listed as “Significant attenuation of disease severity”.

For `CCN(CC)C(=O)[C@H]1CCCc2c1c1c(OC)cccc1n2CC[18F]` [[^18F]GE-180], the “TSPO-PET signal in the brain” value ([3]; EAE vs naive mice) was “no significant differences”, the “TSPO-PET uptake in cervical/thoracic and lumbar spinal cords” value ([3]; EAE vs naive mice, 50-60 min post-injection) was “significantly reduced uptake” and the CNS tracer binding ([3]; control mice (CFA emulsion without MOG) vs naive untouched mice) was “decreased”.
